Tests used:
MELAS cybrid cells = test: Mitophagy markers in MELAS cybrid cells (immunoblot); assay type: cell-based, human; conditions: 10 μM, 48 h
Description: FIGS. 7A-7E: MNRR1 activation by tizoxanide enhances mtDNA biogenesis and mitophagy to shift heteroplasmy in MELAS cells. FIG. 7A: Oxygen consumption measured from MELAS cybrid cells treated with vehicle (DMSO) or tizoxanide (10 μM) for 48 h (n=4 biological replicates, error bars represent SE). FIG. 7B: Haelll restriction enzyme digestion of a PCR-amplified fragment of mtDNA harboring the m.3243A>G mutation from DW7 cells treated with vehicle (DMSO) or tizoxanide (10 μM) for 144 h. […] FIG. 7C: Genes identified using qPCR of MELAS cybrid cells stably overexpressing EV or MNRR1. FIG. 7D: MtDNA levels are shown relative to nuclear DNA (nDNA) (GAPDH) (n=5 biological replicates, error bars represent SE). FIG. 7E: Equal amounts of MELAS cybrid cell lysates, treated with vehicle (DMSO) or tizoxanide (10 μM) for 48 h, were separated on an SDS-PAGE gel and probed for PGC1a, PINK1, LC3 A/B, MNRR1, and Tubulin. […]
Immunoblotting: Immunoblotting was performed as described previously. […] The clear supernatants were transferred to new tubes and quantified using the Bradford reagent with BSA as standard (BioRad, Hercules. CA). […] For detection after immunoblotting, the SuperSignal™ West Pico PLUS substrate (ThermoFisher, Waltham, MA) was used to generate chemiluminescence signal, which was detected with X-Ray film (RadTech, Vassar, MI).

MNRR1 = MNRR1 transcript and protein levels in decidua and placenta of LPS-injected dams; assay type: in vivo, mouse
Description: FIGS. 2A-2F. Nitazoxanide prevents preterm delivery and improves neonatal mortality in vivo. (FIG. 2A) Schematic illustration depicting the administration of nitazoxanide (marketed under the commercial name Alinia) and LPS in the murine model of preterm birth. (FIG. 2B) Gestational length of mice was obtained using video-monitoring until delivery (n=6-8 animals). (FIG. 2C) Neonatal mortality was determined by calculating the number of dead pups over total litter size (n=6-8 animals). […] No pups from LPS-injected dams survived beyond week 0 of birth. (FIG. 2E) MNRR1 transcript levels were measured in mouse decidual tissue (17.5 dpc). Actin was used as a housekeeping gene to normalize expression (n=4 animals for all except PBS+N, where n=3). (FIG. 2F) Equal amounts of whole placental lysates were separated on an SDS-PAGE gel and probed for MNRR1 levels. Actin was used as a loading control. Gel is representative of data obtained from 2 animals. […]
Real-time polymerase chain reaction: Total cellular RNA was extracted from mouse placental tissues or HTR8 cells by using a RNeasy Plus Mini Kit (Qiagen, Germantown, MD, USA), according to the manufacturer's instructions. […] Transcript levels were measured by real-time PCR by using SYBR green on an ABI 7500 system. […]

[1] = test system: E. coli-induced placental inflammation; test: E. coli-induced placental inflammation model of preterm birth; assay type: in vivo; conditions: same dosage as in LPS model
Text: Using the E. coli-induced placental inflammation model and methods similar to those described in Spencer et al. (PLoS One, 16(12): e0260370, 2021 doi: 10.1371/journal.pone.0260370), nitazoxanide therapy will be tested using the same dosage as above and in Purandare et al. (Placenta 140:66-71, 8 Jul. 2023; Purandare et al., bioRxiv, Feb. 1, 2023).

| Structure (SMILES) | mitophagy (PINK1, LC3A, LC3B, pSer-65 ubiquitin) (MELAS cybrid cells) | MNRR1 transcript level in the decidua (MNRR1; 17.5 dpc) | MNRR1 protein level in the placenta (MNRR1; whole placental lysates) | reducing or preventing pre-term birth [1] |
| --- | --- | --- | --- | --- |
| O=C(Nc1ncc([N+](=O)[O-])s1)c1ccccc1O [tizoxanide, Tizoxanide] | Increased mitophagy |  |  |  |
| CC(=O)Oc1ccccc1C(=O)Nc1ncc([N+](=O)[O-])s1 [nitazoxanide, Nitazoxanide] |  | restored the LPS-induced reduction of MNRR1 | restored the LPS-induced reduction of MNRR1 | effective in reducing or preventing pre-term birth |
